Experimental data: PubChem BioAssay (NCI)
“And” between values parts separate entries of the source, which are not always exact repeats. Equal values may be shown once.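 In this assay, cells in 96-well plates receive the compound at five concentrations for 48 hours. Endpoints are linearly interpolated between the surrounding concentrations. GI50: concentration for 50% inhibition of growth. The concentration for full growth arrest is given as TGI.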

Columns and labels:
Assay in all cases: growth of human tumour cells (NCI), 48 h
[1] = tested on: HOP-62 NSCLC
[2] = tested on: HOP-92 NSCLC
[3] = tested on: HS 578T breast
[4] = tested on: K-562 leukemia
[5] = tested on: LOX IMVI melanoma
[6] = tested on: OVCAR-8 ovarian
[7] = tested on: SF-539 CNS
[8] = tested on: SK-MEL-28 melanoma
[9] = tested on: SNB-75 CNS
[10] = tested on: T-47D breast

Row | SMILES | GI50 [1] | TGI [1] | GI50 [2] | TGI [2] | GI50 [3] | TGI [3] | GI50 [4] | TGI [4] | GI50 [5] | TGI [5] | GI50 [6] | TGI [6] | GI50 [7] | TGI [7] | GI50 [8] | TGI [8] | GI50 [9] | TGI [9] | GI50 [10] | TGI [10]
1 | Cc1ccc(NC(=O)c2ccc(NC3=C(Cl)C(=O)N(Cc4ccccc4)C3=O)cc2)cc1Cl | 12.2 µM | 31.9 µM | 1.65 µM | 11.6 µM | 10.7 µM | 34.9 µM | 2.23 µM | 12 µM | 3 µM | 14 µM | 9.96 µM | 21.5 µM | 2.47 µM | 16.4 µM | 24.2 µM | > 100 µM | 23.9 µM | 76.8 µM | 2.8 µM | 14.5 µM
2 | COC(=O)C1=Nc2ccc(F)cc2/C1=C/c1sc(=S)[nH]c1O | 0.18 µM | 18.7 µM | 1.19 µM | 14.4 µM | 0.0518 µM | 21.6 µM | 0.045 µM | > 100 µM | 0.0943 µM | > 32.6 µM | 0.202 µM | 37.7 µM | 0.0743 µM | 0.751 µM | 1.06 µM | > 83.5 µM | 0.0301 µM | 11.8 µM | 4.41 µM | > 100 µM
3 | CC1(C)N=C(N)N=C(N)N1c1ccc(OCCCCNC(=O)Nc2cccc(S(=O)(=O)F)c2)c(Cl)c1 | 10.6 µM | > 100 µM | 27.1 µM | > 100 µM | 19.3 µM | > 100 µM | 0.351 µM | > 100 µM | 0.491 µM | > 100 µM | 4.28 µM | > 100 µM | 1.27 µM | 8.5 µM | 6.04 µM | > 100 µM | 2.98 µM | 48.7 µM | 15.8 µM | > 100 µM
4 | CC/C(=C(/c1ccc(/C=C/C(=O)O)cc1)c1ccc2[nH]ncc2c1)c1ccc(F)cc1Cl | 9.98 µM | 26.5 µM | 10.1 µM | 24.8 µM | 8.63 µM | 38.7 µM | 12.1 µM | 41 µM | 14.5 µM | 39.6 µM | 14.2 µM | 37.9 µM | 7.84 µM | 21.6 µM | 7.25 µM | 22.2 µM | 6.91 µM | 26.3 µM | 0.141 µM | 26.9 µM
5 | Cc1cc2c(cc1C)[n+](=O)c(C(=O)/C=C/c1ccccc1[N+](=O)[O-])c(C)n2[O-] |  | > 84.1 µM |  | 67.4 µM |  | > 77.2 µM |  | > 100 µM |  | > 100 µM |  | > 100 µM |  | 47.2 µM |  | > 100 µM |  | 41.1 µM |  | > 100 µM
6 | CCC1=C(c2ccc(OC)cc2)CC[C@]2(CCNC2=O)[C@@H]1C |  | > 100 µM |  | > 100 µM |  | 76.2 µM |  | 48.7 µM |  | 60.5 µM |  | > 100 µM |  | 54.8 µM |  | 74.1 µM |  | > 95.6 µM |  | > 91.1 µM
7 | N=C(N)c1ccc(OCCCCCOc2ccc(C(=N)N)cc2)cc1 | 3.38 µM | 10.6 µM and 32.8 µM and 30.3 µM | 1.89 µM | 21.5 µM and > 100 µM | 7.64 µM | 32.2 µM and 33 µM and 38.5 µM | 2.8 µM | 32.7 µM and 15.4 µM and > 100 µM | 8.47 µM | 28.8 µM and 37.8 µM and 36.4 µM | 2.05 µM | 12.9 µM and 22.5 µM and 86.6 µM | 8.36 µM | 20.7 µM and 27.1 µM | 5.46 µM | 12.3 µM and 21.9 µM and 49 µM |  | 33.1 µM and 18.3 µM and > 100 µM | 1.14 µM | 13.3 µM and 37.7 µM and > 100 µM
8 | O=C(Nc1ccc(Cl)c(C(F)(F)F)c1)C(=O)c1c(O)c2ccccc2oc1=O |  | > 100 µM |  | > 100 µM |  | > 100 µM |  | > 100 µM |  | > 100 µM |  | > 100 µM |  | > 100 µM |  | > 100 µM |  | > 100 µM |  | > 100 µM
9 | Nc1ccn([C@@H]2S[C@H](CO)[C@@H](O)[C@@H]2F)c(=O)n1 | 0.0526 µM | > 74.3 µM | 0.278 µM | > 100 µM | > 100 µM | > 100 µM | 0.23 µM | > 100 µM | 0.224 µM | > 100 µM | 0.026 µM | > 100 µM | 0.317 µM |  | > 100 µM | > 100 µM | 2.73 µM | > 100 µM | 1.35 µM | > 100 µM
10 | CCN(CC)C(=O)CCCCCn1c2ccccc2c2c3c(c4c5ccccc5[nH]c4c21)C(=O)N(O)C3=O | 11.6 µM | 47.8 µM | 2.73 µM | 7.68 µM | 5.05 µM | > 100 µM | 4.18 µM | > 100 µM | 1.13 µM | 2.88 µM | 4.1 µM | 28.3 µM | 1.92 µM | 4.27 µM | 5.38 µM | > 100 µM | 7.71 µM | > 100 µM | 4.12 µM | 52.1 µM
11 | COc1cc2c(cc1OC)C(SC)C(=O)N(Cc1cccc(OC)c1OC)CC2 (stereo not drawn) |  | > 45.8 µM |  | 16.9 µM |  | > 24.6 µM |  | 41.4 µM |  | > 83.3 µM |  | 70.9 µM |  | 9.13 µM |  | > 42.3 µM |  | > 100 µM |  | 21.2 µM
12 | Nc1n[nH]c2ccc([C@@H]3Nc4c(F)cc5[nH]ncc5c4[C@H]4C5CCC(C5)[C@@H]34)cc12 (stereo partly drawn) | 0.432 µM | 38.5 µM | 1.48 µM | > 29.3 µM | 0.178 µM | 8.78 µM | 0.0546 µM | > 52.1 µM | 0.539 µM | 23.9 µM | 0.468 µM | > 100 µM | 0.157 µM | 0.598 µM | 2.19 µM | > 60.7 µM | 0.0993 µM | 7.25 µM | 0.509 µM | > 100 µM
13 | Cn1c(CC(O)c2nc3ccccc3n2C)nc2ccccc21 (stereo not drawn) |  | > 19.1 µM |  | > 38.7 µM |  | > 24.2 µM |  | > 47.9 µM |  | > 47.7 µM |  | > 47.8 µM |  | > 56 µM |  | > 60.9 µM |  | > 100 µM |  | > 16.7 µM
14 | Cc1ccc(O)cc1Nc1ccnc2cc(-c3ccccn3)ccc12 | 3.48 µM | 8.59 µM | 0.292 µM | 3.02 µM | 2.45 µM | 9.03 µM | 0.0973 µM | 2.52 µM | 2.26 µM | 5.71 µM | 3.61 µM | 9.28 µM | 3.08 µM | 6.68 µM | 3.38 µM | 6.79 µM | 0.405 µM | 3.43 µM | 1.72 µM | 9.86 µM
